The values below come from patent US7521447B2, “P38 inhibitors and methods of use thereof” (Array Biopharma Inc., priority 2003, dated 2009).

The target in one assay is activated p38α enzyme (Homo sapiens, UniProt Q16539). In words: p38 Biochemical Assay. On the set-up: key: An “active” compound is defined as a compound having an IC50 below 500 nM. The conditions noted are these: 5 nM activated p38α, 1 uM ATF-2 substrate, 10 μM ATP. How it is done: P38 activity was assayed at room temperature in a 100 μl reaction containing 5 nM activated p38α enzyme and 1 uM ATF-2 (Activating Transcription Factor 2 fusion protein) as the substrate in 25 mM HEPES (pH 7.4), 100 μM Vanadate, 1 mM DTT, 10 mM MgCl2 and 10 μM [[…]-^33P]-ATP (˜0.1 μCi P^33/reaction). The reaction was terminated after 30-40 minutes by adding 25% TCA, let stand for 5 minutes and then transferred directly to a GF-B membrane filter plate. The filter was washed twice for 30 seconds with 0.5% phosphoric acid using a Tomtec Mach III Automated Harvestor. After washing, the vacuum was continued for 30 seconds to dry the filter. Approximately 30 μl of scintillant was added per well to the filter plate and then read in a Liquid Scintillation Counter (Packard TopCount HTS).
Sequence of activated p38α enzyme (Q16539 whole entry, the tested form may be a part): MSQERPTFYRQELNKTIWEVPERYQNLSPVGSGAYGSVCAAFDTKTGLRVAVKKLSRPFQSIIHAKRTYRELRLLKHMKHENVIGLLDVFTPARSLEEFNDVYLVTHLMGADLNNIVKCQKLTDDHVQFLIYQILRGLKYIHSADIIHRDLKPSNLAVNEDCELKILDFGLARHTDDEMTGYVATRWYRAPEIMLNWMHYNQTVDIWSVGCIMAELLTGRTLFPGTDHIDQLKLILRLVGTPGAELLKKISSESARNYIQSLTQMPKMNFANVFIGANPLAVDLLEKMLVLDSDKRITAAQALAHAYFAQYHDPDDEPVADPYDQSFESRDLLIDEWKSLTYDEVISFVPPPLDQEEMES

Assay [1] concerns LPS-induced TNF-α secretion from human peripheral blood mononuclear cells (PBMC). In words: PBMC Assay: inhibition of LPS-induced TNF-α secretion. The conditions noted are these: LPS-stimulated human PBMC, TNF-α ELISA. On the set-up: key: An “active” compound is defined as a compound having an IC50 below 500 nM. Format: cell-based. The protocol: The ability of compounds of this invention to inhibit TNF-α production was assessed by using human peripheral blood mononuclear cells (“PBMC”) which synthesize and secrete TNF-α when stimulated with lipopolysaccharide.
Compound test solutions were made by making 5 fold serial dilutions in DMSO, which dilutions were then diluted to 5× stocks by diluting with MEM, 2% heat inactivated fetal bovine serum (“FBS”), 20 mM HEPES, 2 mM L-glutamine, and 1% penicillin/streptomycin.
PBMC's were isolated from human blood as follows. Whole blood samples were collected from human volunteers into Vacutainer™ CPT from Becton Dickinson. Tubes were mixed and centrifuged at room temperature (18-25° C.) in a horizontal rotor for a minimum of 15 minutes at 1500-1800 RCF (relative centrifugal force). For each donor, the buffy coat layers were pooled into a single tube and washed twice with phosphate buffered saline (“PBS”). The cell pellet was resuspended in MEM, 2% heat inactivated fetal bovine serum (“FBS”), 20 mM HEPES, 2 mM L-glutamine, and 1% penicillin/streptomycin. Total cell number was determined using a hemocytometer and the cell suspension was adjusted to 2×10^6 cells/mL.
0.1 mL of cell suspension was added to each well of a 96-well cell culture plate. 30 μL of a compound test solution was added, and the cells were incubated in a 37° C./5% CO2 incubator for 1 hour. 20 μL of 7.5 ng/mL lipopolysaccharide (LPS E. Coli K-235) was then added to each well, and the cells were returned to the 37° C./5% CO2 incubator for 16-20 hours. The cells were centrifuged for 15 minutes at 1100 RCF. Approximately 0.12 mL of the supernatant was transferred into a clean 96 well polypropylene plate. The samples were either assayed immediately or were stored at −80° C. until ready for assay. TNF-α levels were determined in each sample using a human TNF-α ELISA assay such as that described below.
TNF-α levels were determined using the following assay. TNF-alpha antibody coated plates were prepared by adding 150 μL of 2 μg/mL anti-TNF-α purified mouse monoclonal IgG in Carbonate-Bicarbonate buffer (BupH™ Carbonate-Bicarbonate Buffer Pack) to wells of a 96-well Immulon 4 plate (Immulon 4 ELISA Flat Bottom Plate; Dynex, catalog number 011-010-3855) and incubated overnight at 2-8° C. Coating solution was removed and 200 μL of “blocking buffer” (20 mM HEPES pH 7.4, 150 mM NaCl, 2% BSA) was added and plates were stored 2-8° C. until ready to use. A ten-point recombinant human TNF-α standard curve was prepared by a 1:2 serial dilution in “sample diluent” (20 mM HEPES, pH 7.4, 150 mM NaCl, 2 mM MgCl2, 1% BSA) with a top concentration of 6000 pg/mL.
Blocking solution was removed from TNF-α ELISA plates by washing five times with 300 μL of “wash buffer” (20 mM HEPES, pH 7.4, 150 mM NaCl, 2 mM MgCl2, 0.02% Tween-20). 50 μL of “sample diluent” was added to all wells, and then either 50 μL of a TNF-α standard curve solution or test compound supernatant was added to all wells. The plate was incubated at room temperature for one hour with shaking (300 rpm). The plate was washed wash five times with 300 μL “wash buffer”. 100 μL of 0.2 μg/mL biotinylated goat anti-human TNF-α in “antibody diluent” (20 mM HEPES, pH 7.4, 150 mM NaCl, 2 mM MgCl2, 1% BSA, 0.02% Tween-20) was added per well, and the plate was incubated at room temperature for one hour with shaking (300 rpm). The plate was washed wash five times with 300 μL “wash buffer” per well. 100 μL of 0.02 μg/mL streptavidin alkaline phosphatase in “antibody diluent” was added per well, and the plate was incubated at room temperature for one hour with shaking (300 rpm). The plate was washed wash five times with 300 μL wash buffer per well. 200 μL of 1 mg/mL pNPP (p-nitrophenyl phosphate) in diethanolamine buffer with 0.5 mM MgCl2 was added per well, and the plate was incubated for 30 to 45 minutes at room temperature with shaking (300 rpm). […]

Regarding `CC(C)Cn1ncc2cc(C(O)c3ccc(F)cc3Cl)ccc21` (stereo not shown) [Compound 4f-8, (2-chloro4-fluorophenyl)-(1-isobutyl-1H-indazol-5-yl)-methanol], the “p38 Inhibition IC50 (nM)” value on activated p38α enzyme was “active”. As for `CC(C)Cn1ncc2cc(C(=O)c3ccc(Cl)cc3F)ccc21` [Compound 5f-7, (4-chloro-2-fluorophenyl)-(1-isobutyl-1H-indazol-5-yl)-methanone], at activated p38α enzyme, the “p38 Inhibition IC50 (nM)” value is “active”. Also, in assay [1], the “PBMC IC50 (nM)” value is reported as “active”. As to `CN(C)CCNC(=O)c1cc2c(cnn2CC(F)(F)F)cc1Oc1ccc(F)cc1` [Compound 11g-14, 5-(4-fluorophenoxy)-1-(2,2,2-trifluoroethyl)-1H-indazole-6-carboxylic acid (2-dimethylaminoethyl) amide], at activated p38α enzyme, the “p38 Inhibition IC50 (nM)” value is “active”.

Consider `C=CCn1ncc2cc(C(=O)c3ccc(F)cc3F)ccc21` [Compound 5f-12, (1-allyl-1H-indazol-5-yl)-(2,4-difluorophenyl)-methanone], for which the “p38 Inhibition IC50 (nM)” value at activated p38α enzyme is given as “active”. Same read-out and setting: to `CC(C)Cn1ncc2cc(C(=NOCc3ccccc3)c3ccc(F)cc3F)ccc21` [Compound 7f-7, (2,4-difluorophenyl)-(1-isobutyl-1H-indazol-5-yl)-methanone O-benzyl-oxime] belongs “active”; to `CCON=C(c1ccc(F)cc1)c1ccc2c(cnn2CC(C)C)c1` [Compound 7f-4, (4-fluorophenyl)-(1-isobutyl-1H-indazol-5-yl)-methanone O-ethyl-oxime], “active”. For the molecule `CC(C)Cn1ncc2cc(C(O)c3ccc(Cl)cc3F)ccc21` (stereo not shown) [Compound 4f-7, (4-chloro-2-fluorophenyl)-(1-isobutyl-1H-indazol-5-yl)-methanol], on activated p38α enzyme, the “p38 Inhibition IC50 (nM)” value is recorded as “active”. On the same count and under the same terms, the result for `C=CCn1ncc2cc(C(=NO)c3ccc(F)cc3F)ccc21` [Compound 7f-17, (1-allyl-1H-indazol-5-yl)-(2,4-difluorophenyl)-methanone oxime] reads “active”. `CC(C)Cn1ncc2cc(Oc3ccccc3CC(=O)Nc3ccc(N4CCOCC4)cc3)ccc21` [Compound 16p, 2-[2-(1-isobutyl-1H-indazol-5-yloxy)-phenyl]-N-(4-morpholin-4-yl-phenyl)-acetamide]: the “p38 Inhibition IC50 (nM)” value at activated p38α enzyme is given as “active”. Still for that read-out and setting: the result for `CS(=O)(=O)n1ncc2cc(C(=NO)c3ccc(F)cc3F)ccc21` [Compound 7f-14, (2,4-difluorophenyl)-(1-methanesulfonyl-1H-indazol-5-yl)methanone oxime] reads “active”; that for `Cc1ccccc1C(O)c1ccc2c(cnn2CC(C)C)c1` (stereo not shown) [Compound 4f-10, (1-isobutyl-1H-indazol-5-yl)-O-tolyl methanol], “active”.

`COC(=O)C(CCN)NC(=O)c1cc2c(cnn2CC(C)C)cc1Oc1ccc(F)cc1` (stereo not shown) [Compound 1j-2, 4-amino-2-{[5-(4-fluorophenoxy)-1-isobutyl-1H-indazole-6-carbonyl]-amino}butyric acid methyl ester]: the “p38 Inhibition IC50 (nM)” value at activated p38α enzyme is given as “active”. For `CON=C(c1ccc2c(cnn2S(C)(=O)=O)c1)c1ccc(F)cc1F` [Compound 7f-15, (2,4-difluorophenyl)-(1-methanesulfonyl-1H-indazol-5-yl)-methanone O-methyl oxime], at activated p38α enzyme, the “p38 Inhibition IC50 (nM)” value is given as “active”. On the same count and under the same terms, the result for `CC(C)Cn1ncc2cc(Oc3ccc(F)cc3)c(C(N)=O)cc21` [Compound 11g-1, 5-(4-fluorophenoxy)-1-isobutyl-1H-indazole-6-carboxylic acid amide] reads “active”. On the same count and under the same terms, the result for `CON=C(c1ccc(F)cc1)c1ccc2c(cnn2CC(C)C)c1` [Compound 7f-9, (4-fluorophenyl)-(1-isobutyl-1H-indazol-5-yl)-methanone O-methyl-oxime] reads “active”; that for `Cc1ccc(-n2nc(C(C)(C)C)cc2NC(=O)NCc2cc(F)ccc2Oc2ccc3c(cnn3C)c2)cc1` [Compound 7t-1, 1-(5-tert-butyl-2-p-tolyl-2H-pyrazol-3-yl)-3-[5-fluoro-2-(1-methyl-1H-indazol-5-yloxy)-benzyl]urea], “active”. On to `COC(=O)C(CCN)NC(=O)c1cc2c(cnn2CC(F)(F)F)cc1Oc1ccc(F)cc1` (stereo not shown) [Compound 1j-4, 4-amino-2-{[5-(4-fluorophenoxy)-1-(2,2,2-trifluoroethyl)-1H-indazole-6-carbonyl]-amino}butyric acid methyl ester], for which the “p38 Inhibition IC50 (nM)” value at activated p38α enzyme was “active”. The same measure, in the same setting: the result for `Cc1ccc(-n2nc(C(C)(C)C)cc2NC(=O)NCc2cc(F)ccc2Nc2ccc3c(cnn3CC3CCC3)c2)cc1` [Compound 9q-2, 1-(5-tert-butyl-2-p-tolyl-2H-pyrazol-3-yl)-3-[2-(1-cyclobutylmethyl-1H-indazol-5-ylamino)-5-fluorobenzyl]-urea] reads “active”; that for `CON=C(c1ccc2c(cnn2CC(F)(F)F)c1)c1ccc(F)cc1F` [Compound 7f-13, (2,4-difluorophenyl)-[1-(2,2,2-trifluoro-ethyl)-1H-indazol-5-yl]-methanone O-methyl oxime], “active”. Consider `Cc1ccc(-n2nc(C(C)(C)C)cc2NC(=O)N(C)Cc2cc(F)ccc2Oc2ccc3c(cnn3C)c2)cc1` [Compound 28t, 3-(5-tert-butyl-2-p-tolyl-2H-pyrazol-3-yl)-1-[5-fluoro-2-(1-methyl-1H-indazol-5-yloxy)-benzyl]-1-methylurea], for which the “p38 Inhibition IC50 (nM)” value at activated p38α enzyme was “active”. Take `Cc1ccc(-n2nc(C(C)(C)C)cc2NC(=O)NCc2cccnc2Oc2ccc3c(cnn3C)c2)cc1` [Compound 6n, 1-(5-tert-butyl-2-p-tolyl-2H-pyrazol-3-yl)-3-[2-(1-methyl-1H-indazol-5-yloxy)-pyridin-3-ylmethyl]-urea]: the “p38 Inhibition IC50 (nM)” value at activated p38α enzyme is recorded as “active”.

Turning to `ON=C(c1ccc2c(cnn2CC(F)(F)F)c1)c1ccc(F)cc1F` [Compound 7f-12, (2,4-difluorophenyl)-[1-(2,2,2-trifluoroethyl)-1H-indazol-5-yl]-methanone oxime], on activated p38α enzyme, the “p38 Inhibition IC50 (nM)” value is “active”. Consider `CC(C)Cn1ncc2cc(C(=O)c3ccc(F)cc3Cl)ccc21` [Compound 5f-8, (2-chloro-4-fluorophenyl)-(1-isobutyl-1H-indazol-5-yl)-methanone], for which the “p38 Inhibition IC50 (nM)” value on activated p38α enzyme is reported as “active”. For `O=C(c1ccc2c(cnn2CC(F)(F)F)c1)c1ccc(F)cc1F` [Compound 5f-11, (2,4-difluorophenyl)-[1-(2,2,2-trifluoro-ethyl)-1H-indazol-5-yl]-methanone], the “p38 Inhibition IC50 (nM)” value at activated p38α enzyme is recorded as “active”.
